Reference: ChEMBL document CHEMBL3272279, “Synthesis of 5-chloro-3'-nitro-4'-substituted salicylanilides, a new series of anthelmintic and antimicrobial agents” (1977)
≈ marks a conversion by molar mass, not a printed value. Calls of active or inactive are those of the source. The rule behind the calls is not given here.

How the values were obtained:
[1] = test system: Escherichia coli; assay: Antimicrobial activity against Escherichia coli assessed as growth inhibition after 24 hrs by two-fold serial dilution technique; assay type: functional, organism-based
[2] = test system: Microsporum canis; assay: Antimicrobial activity against Microsporum canis assessed as growth inhibition after 24 hrs by two-fold serial dilution technique; assay type: functional
[3] = test system: Salmonella typhi; assay: Antimicrobial activity against Salmonella typhi assessed as growth inhibition after 24 hrs by two-fold serial dilution technique; assay type: functional, organism-based; settings: Salmonella enterica subsp. enterica serovar Typhi
[4] = test system: Trichophyton mentagrophytes; assay: Antimicrobial activity against Trichophyton mentagrophytes assessed as growth inhibition after 24 hrs by two-fold serial dilution technique; assay type: functional
[5] = test system: Rodentolepis nana; assay: Cestodicidal activity against Hymenolepis nana infected in po dosed rat administered as single dose; assay type: functional
[6] = test system: Candida albicans; assay: Antimicrobial activity against Candida albicans assessed as growth inhibition after 24 hrs by two-fold serial dilution technique; assay type: functional
[7] = test system: Aspergillus niger; assay: Antimicrobial activity against Aspergillus niger assessed as growth inhibition after 24 hrs by two-fold serial dilution technique; assay type: functional
[8] = test system: Cryptococcus neoformans; assay: Antimicrobial activity against Cryptococcus neoformans assessed as growth inhibition after 24 hrs by two-fold serial dilution technique; assay type: functional
[9] = test system: Staphylococcus aureus; assay: Antimicrobial activity against penicillin-resistant Staphylococcus aureus assessed as growth inhibition after 24 hrs by two-fold serial dilution technique; assay type: functional
[10] = test system: Bacillus subtilis; assay: Antimicrobial activity against Bacillus subtilis assessed as growth inhibition after 24 hrs by two-fold serial dilution technique; assay type: functional, organism-based
[11] = test system: Agrobacterium tumefaciens; assay: Antimicrobial activity against Agrobacterium tumefaciens assessed as growth inhibition after 24 hrs by two-fold serial dilution technique; assay type: functional
[12] = test system: Rodentolepis nana; assay: Cestodicidal activity against Hymenolepis nana infected in rat at 250 mg/kg, po administered as single dose; assay type: functional, organism-based; parameters: dose 250 mg/kg
[13] = test system: Candida albicans; assay: Antimicrobial activity against Candida albicans assessed as growth inhibition at 0.39 ug/ml after 24 hrs by two-fold serial dilution technique; assay type: functional, organism-based
[14] = test system: Escherichia coli; assay: Antimicrobial activity against Escherichia coli assessed as growth inhibition at 0.78 ug/ml after 24 hrs by two-fold serial dilution technique; assay type: functional, organism-based

Row | SMILES | growth inhibition (GI) [1] | MIC [2] | growth inhibition (GI) [3] | MIC [4] | MED98 [5] | growth inhibition (GI) [6] | MIC [7] | MIC [8] | MIC [9] | growth inhibition (GI) [10] | MIC [11] | MIC [6] | Activity [12] | growth inhibition (GI) [13] | growth inhibition (GI) [14]
1 | O=C(Nc1ccc(NC2CCCCC2)c([N+](=O)[O-])c1)c1cc(Cl)ccc1O | inactive | 3.12 mg/L (≈ 8.02 µM) | inactive | 3.12 mg/L (≈ 8.02 µM) | 30 mg/kg | inactive | 25 mg/L (≈ 64.1 µM) | 25 mg/L (≈ 64.1 µM) | 0.0975 mg/L (≈ 0.25 µM) | inactive | > 100 mg/L |  |  |  | 
2 | O=C(Nc1ccc(N2CCN(c3ccccc3)CC2)c([N+](=O)[O-])c1)c1cc(Cl)ccc1O | inactive | 1.56 mg/L (≈ 3.44 µM) | inactive | 3.12 mg/L (≈ 6.9 µM) | 50 mg/kg | inactive | 25 mg/L (≈ 55.2 µM) | 12.5 mg/L (≈ 27.6 µM) | 0.39 mg/L (≈ 0.861 µM) | inactive | > 100 mg/L |  |  |  | 
3 | CN1CCN(c2ccc(NC(=O)c3cc(Cl)ccc3O)cc2[N+](=O)[O-])CC1 | inactive | 0.39 mg/L (≈ 0.998 µM) | inactive | 0.195 mg/L (≈ 0.499 µM) | 100 mg/kg |  | 25 mg/L (≈ 64 µM) | 25 mg/L (≈ 64 µM) | 0.195 mg/L (≈ 0.499 µM) | inactive | 25 mg/L (≈ 64 µM) | 25 mg/L (≈ 64 µM) |  |  | 
4 | O=C(Nc1ccc(N2CCC(O)(c3ccccc3)CC2)c([N+](=O)[O-])c1)c1cc(Cl)ccc1O | inactive | 6.25 mg/L (≈ 13.4 µM) | inactive | 6.25 mg/L (≈ 13.4 µM) | 250 mg/kg | inactive | > 100 mg/L | 3.12 mg/L (≈ 6.68 µM) | 0.39 mg/L (≈ 0.833 µM) | inactive | 25 mg/L (≈ 53.4 µM) |  |  |  | 
5 | Cc1cccc(Oc2ccc(NC(=O)c3cc(Cl)ccc3O)cc2[N+](=O)[O-])c1 | inactive | 0.78 mg/L (≈ 1.96 µM) | inactive | 1.56 mg/L (≈ 3.91 µM) |  | inactive | > 100 mg/L | > 100 mg/L | 0.195 mg/L (≈ 0.489 µM) | inactive | > 100 mg/L |  | inactive |  | 
6 | CCC1CCCCN1c1ccc(NC(=O)c2cc(Cl)ccc2O)cc1[N+](=O)[O-] (stereo not given) | inactive | 6.25 mg/L (≈ 15.5 µM) | inactive | 6.25 mg/L (≈ 15.5 µM) | 100 mg/kg | inactive | > 100 mg/L | 25 mg/L (≈ 61.9 µM) | 0.39 mg/L (≈ 0.966 µM) | inactive | > 100 mg/L |  |  |  | 
7 | C[C@@H]1[C@H](O)[C@@H](C)/C=C/C=C/C=C/C=C/C=C/C=C/C=C/[C@H](O[C@@H]2O[C@H](C)[C@@H](O)[C@H](N)[C@@H]2O)C[C@@H]2O[C@](O)(C[C@@H](O)C[C@@H](O)[C@H](O)CC[C@@H](O)C[C@@H](O)CC(=O)O[C@H]1C)C[C@H](O)[C@H]2C(=O)O [AMPHOTERICIN B] |  | 1.56 mg/L (≈ 1.69 µM) |  | 1.56 mg/L (≈ 1.69 µM) |  |  | 12.5 mg/L (≈ 13.5 µM) | 0.78 mg/L (≈ 0.844 µM) |  |  |  |  |  | Active | 
8 | CC1CCN(c2ccc(NC(=O)c3cc(Cl)ccc3O)cc2[N+](=O)[O-])CC1 | inactive | > 100 mg/L | inactive | > 100 mg/L | 250 mg/kg | inactive | > 100 mg/L | 3.12 mg/L (≈ 8.02 µM) | 0.0975 mg/L (≈ 0.25 µM) | inactive | 25 mg/L (≈ 64.1 µM) |  |  |  | 
9 | CCCCN(CCCC)c1ccc(NC(=O)c2cc(Cl)ccc2O)cc1[N+](=O)[O-] | inactive | 25 mg/L (≈ 59.5 µM) | inactive | > 100 mg/L |  | inactive | 25 mg/L (≈ 59.5 µM) | > 100 mg/L | > 100 mg/L | inactive | > 100 mg/L |  | inactive |  | 
10 | O=C(Nc1ccc(N2CCC(c3ccccc3)CC2)c([N+](=O)[O-])c1)c1cc(Cl)ccc1O | inactive | 6.25 mg/L (≈ 13.8 µM) | inactive | 6.25 mg/L (≈ 13.8 µM) | 250 mg/kg | inactive | > 100 mg/L | 3.12 mg/L (≈ 6.92 µM) | 0.39 mg/L (≈ 0.863 µM) | inactive | 25 mg/L (≈ 55.3 µM) |  |  |  | 
11 | CCOc1ccc(NC(=O)c2cc(Cl)ccc2O)cc1[N+](=O)[O-] | inactive | > 100 mg/L | inactive | > 100 mg/L |  | inactive | > 100 mg/L | > 100 mg/L | > 100 mg/L | inactive | > 100 mg/L |  | inactive |  | 
12 | O=C(Nc1ccc(Br)cc1)c1cc(Br)cc(Br)c1O [TRIBROMSALAN] | inactive | 0.78 mg/L (≈ 1.73 µM) | inactive | 1.56 mg/L (≈ 3.47 µM) |  |  | 12.5 mg/L (≈ 27.8 µM) | 6.25 mg/L (≈ 13.9 µM) | 0.0975 mg/L (≈ 0.217 µM) | inactive | 12.5 mg/L (≈ 27.8 µM) |  |  |  | 
13 | O=C(Nc1ccc(Oc2ccc(Cl)cc2)c([N+](=O)[O-])c1)c1cc(Cl)ccc1O | inactive | 0.78 mg/L (≈ 1.86 µM) | inactive | 1.56 mg/L (≈ 3.72 µM) |  | inactive | 25 mg/L (≈ 59.6 µM) | > 100 mg/L | 0.78 mg/L (≈ 1.86 µM) | inactive | 25 mg/L (≈ 59.6 µM) |  | inactive |  | 
14 | O=C(Nc1ccc(N2CCCCC2)c([N+](=O)[O-])c1)c1cc(Cl)ccc1O | inactive | > 100 mg/L | inactive | > 100 mg/L | 250 mg/kg |  | 12.5 mg/L (≈ 33.3 µM) | 1.56 mg/L (≈ 4.15 µM) | 0.195 mg/L (≈ 0.519 µM) | inactive | 12.5 mg/L (≈ 33.3 µM) | 25 mg/L (≈ 66.5 µM) |  |  | 
15 | O=C(Nc1ccc(N2CCCC2)c([N+](=O)[O-])c1)c1cc(Cl)ccc1O | inactive | > 100 mg/L | inactive | > 100 mg/L |  |  | 25 mg/L (≈ 69.1 µM) | 25 mg/L (≈ 69.1 µM) | 0.0975 mg/L (≈ 0.269 µM) | inactive | > 100 mg/L | 25 mg/L (≈ 69.1 µM) | inactive |  | 
16 | O=C(Nc1ccc(Oc2ccccc2)c([N+](=O)[O-])c1)c1cc(Cl)ccc1O | inactive | 0.78 mg/L (≈ 2.03 µM) | inactive | 1.56 mg/L (≈ 4.05 µM) | 250 mg/kg | inactive | 25 mg/L (≈ 65 µM) | > 100 mg/L | 0.00609 mg/L (≈ 0.0158 µM) | inactive | > 100 mg/L |  |  |  | 
17 | Cc1ccc(Oc2ccc(NC(=O)c3cc(Cl)ccc3O)cc2[N+](=O)[O-])cc1 | inactive | 0.78 mg/L (≈ 1.96 µM) | inactive | 1.56 mg/L (≈ 3.91 µM) |  | inactive | 6.25 mg/L (≈ 15.7 µM) | > 100 mg/L | 0.39 mg/L (≈ 0.978 µM) | inactive | > 100 mg/L |  | inactive |  | 
18 | CN(C)[C@@H]1C(O)=C(C(N)=O)C(=O)[C@@]2(O)C(O)=C3C(=O)c4c(O)cccc4[C@@](C)(O)[C@H]3C[C@@H]12 [TETRACYCLINE] |  |  |  |  |  |  |  |  |  |  | 0.78 mg/L (≈ 1.76 µM) |  |  |  | Active
19 | O=C(Nc1ccc([N+](=O)[O-])cc1Cl)c1cc(Cl)ccc1O [NICLOSAMIDE] |  |  |  |  | 50 mg/kg |  |  |  |  |  |  |  |  |  | 
20 | CC1CCCN(c2ccc(NC(=O)c3cc(Cl)ccc3O)cc2[N+](=O)[O-])C1 (stereo not given) | inactive | 3.12 mg/L (≈ 8.02 µM) | inactive | 6.25 mg/L (≈ 16 µM) | 250 mg/kg | inactive | > 100 mg/L | 25 mg/L (≈ 64.1 µM) | 0.39 mg/L (≈ 1 µM) | inactive | > 100 mg/L |  |  |  | 
21 | CC1CCCCN1c1ccc(NC(=O)c2cc(Cl)ccc2O)cc1[N+](=O)[O-] (stereo not given) | inactive | 6.25 mg/L (≈ 16 µM) | inactive | 12.5 mg/L (≈ 32.1 µM) | 50 mg/kg | inactive | > 100 mg/L | > 100 mg/L | 0.0975 mg/L (≈ 0.25 µM) | inactive | > 100 mg/L |  |  |  | 
22 | O=C(Nc1ccc(N2CCCCCC2)c([N+](=O)[O-])c1)c1cc(Cl)ccc1O | inactive | 25 mg/L (≈ 64.1 µM) | inactive | 25 mg/L (≈ 64.1 µM) | 50 mg/kg | inactive | > 100 mg/L | > 100 mg/L | 0.0975 mg/L (≈ 0.25 µM) | inactive | > 100 mg/L |  |  |  | 
